# Measured values reported in ChEMBL document CHEMBL1201862, “PubChem BioAssay data set” (2004).
# Counter-ions that a name gives are not always drawn. Active and inactive are the calls of the source.
# What was measured:
# [1] = target: Beta-2 adrenergic receptor (Homo sapiens, UniProt P07550); test: beta2AR agonists driving receptor internalization, dose response, cell-based, FAP fluorogen, flow cytometry, cherry pick 1 (AID 588763); format: functional
# [2] = target: T1, Short transient receptor potential channel 4 (Mus musculus, UniProt Q9QUQ5); test: mouse TRPC4 channel inhibitors, dose response, cell-based, HEK293 TRPC4/mu-opioid, Fluo-4 calcium (AID 434942); format: functional;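 also: potency of inhibitors blocking the TRPC4 calcium response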
# T1 sequence (Q9QUQ5 whole entry): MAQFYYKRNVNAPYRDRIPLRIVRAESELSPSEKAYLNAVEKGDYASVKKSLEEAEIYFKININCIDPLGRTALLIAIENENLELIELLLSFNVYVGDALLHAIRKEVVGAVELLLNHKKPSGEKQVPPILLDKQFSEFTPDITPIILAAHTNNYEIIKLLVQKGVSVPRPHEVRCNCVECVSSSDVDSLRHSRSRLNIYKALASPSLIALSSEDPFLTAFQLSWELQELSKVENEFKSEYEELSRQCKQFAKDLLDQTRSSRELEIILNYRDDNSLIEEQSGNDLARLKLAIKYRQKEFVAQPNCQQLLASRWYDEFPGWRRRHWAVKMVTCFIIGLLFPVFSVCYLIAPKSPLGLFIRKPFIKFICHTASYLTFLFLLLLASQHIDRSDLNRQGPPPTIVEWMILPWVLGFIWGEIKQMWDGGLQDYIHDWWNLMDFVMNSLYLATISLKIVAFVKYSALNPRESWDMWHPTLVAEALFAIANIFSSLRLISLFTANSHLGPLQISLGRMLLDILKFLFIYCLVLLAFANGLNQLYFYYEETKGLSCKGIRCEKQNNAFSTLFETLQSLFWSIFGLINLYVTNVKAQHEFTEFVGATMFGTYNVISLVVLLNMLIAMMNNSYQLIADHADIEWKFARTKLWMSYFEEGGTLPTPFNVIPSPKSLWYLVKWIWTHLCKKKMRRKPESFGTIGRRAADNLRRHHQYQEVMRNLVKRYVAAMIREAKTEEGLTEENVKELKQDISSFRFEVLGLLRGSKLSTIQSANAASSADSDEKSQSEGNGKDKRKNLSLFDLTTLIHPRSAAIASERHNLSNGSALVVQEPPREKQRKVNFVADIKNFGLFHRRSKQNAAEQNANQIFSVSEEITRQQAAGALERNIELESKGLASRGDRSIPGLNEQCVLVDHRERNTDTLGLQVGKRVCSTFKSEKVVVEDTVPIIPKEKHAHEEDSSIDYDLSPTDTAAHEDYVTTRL
# [3] = target: Protein Wnt-3a (Mus musculus, UniProt P27467); test: Wnt3a-driven reporter signaling inhibition, dose response, selectivity assay for Gli-SUFU antagonist project, Wnt-LIGHT cells, luminescence (AID 651570); format: functional; conditions: read-out: IC50_Mean;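 also: Wnt-LIGHT reporter cells stimulated with conditioned medium from Wnt3a-producing cells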
# Sequence of Protein Wnt-3a (P27467 whole entry): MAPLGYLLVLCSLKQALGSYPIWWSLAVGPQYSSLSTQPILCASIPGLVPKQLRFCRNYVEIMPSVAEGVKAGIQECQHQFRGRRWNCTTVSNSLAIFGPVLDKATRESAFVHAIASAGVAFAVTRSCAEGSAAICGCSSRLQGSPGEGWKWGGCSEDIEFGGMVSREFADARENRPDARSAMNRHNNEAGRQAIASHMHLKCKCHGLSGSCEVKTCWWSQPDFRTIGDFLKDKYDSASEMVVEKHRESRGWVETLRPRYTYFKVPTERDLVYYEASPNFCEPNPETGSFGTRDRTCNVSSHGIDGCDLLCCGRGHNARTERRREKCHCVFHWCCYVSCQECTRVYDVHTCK
# [4] = cells; format: functional, cell-based; conditions: HEK-CNG
# [5] = target: T2, COUP transcription factor 2 (Homo sapiens, UniProt P24468); test: Luminescence-based cell-based high throughput dose response assay to identify inhibitors of COUP-TFII (NR2F2).; format: functional;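 also: HEK293 cells transiently cotransfected with COUP-TFII expression vector and reporter; luciferase reporter luminescence driven by COUP-TFII from the pX2-168 reporter plasmid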
# T2 sequence (P24468 whole entry): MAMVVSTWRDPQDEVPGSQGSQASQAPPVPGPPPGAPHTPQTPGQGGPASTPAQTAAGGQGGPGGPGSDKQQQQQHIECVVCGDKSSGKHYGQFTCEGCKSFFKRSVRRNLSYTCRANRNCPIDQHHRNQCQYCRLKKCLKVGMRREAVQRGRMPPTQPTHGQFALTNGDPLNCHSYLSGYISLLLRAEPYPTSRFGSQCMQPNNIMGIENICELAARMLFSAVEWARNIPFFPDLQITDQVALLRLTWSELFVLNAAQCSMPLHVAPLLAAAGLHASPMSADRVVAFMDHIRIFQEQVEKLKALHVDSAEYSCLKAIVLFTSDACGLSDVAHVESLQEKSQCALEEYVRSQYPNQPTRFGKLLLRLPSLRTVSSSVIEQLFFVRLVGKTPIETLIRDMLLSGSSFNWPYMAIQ
# [6] = target: T3, Galanin receptor type 3 (Homo sapiens, UniProt O60755); test: Fluorescence-based cell-based primary high throughput dose response assay to identify antagonists of the Galanin Receptor 3 (GalR3).; format: functional
# T3 sequence (O60755 whole entry): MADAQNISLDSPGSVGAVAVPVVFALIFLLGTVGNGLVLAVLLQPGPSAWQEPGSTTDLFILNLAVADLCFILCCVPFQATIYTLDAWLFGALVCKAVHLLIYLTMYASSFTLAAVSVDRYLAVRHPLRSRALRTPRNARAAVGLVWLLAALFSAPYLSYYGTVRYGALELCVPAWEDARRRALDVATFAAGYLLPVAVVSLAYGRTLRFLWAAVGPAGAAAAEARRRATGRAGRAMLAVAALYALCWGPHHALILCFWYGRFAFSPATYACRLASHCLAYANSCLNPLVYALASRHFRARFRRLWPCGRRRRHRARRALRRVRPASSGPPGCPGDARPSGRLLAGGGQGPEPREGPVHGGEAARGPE
# [7] = system: INS1; test: beta cell apoptosis inhibitors, cytokine rescue, dose response, luminescence, retest (AID 449756); format: functional, cell-based; conditions: Rattus norvegicus;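 also: cell death triggered by IL-1 beta plus TNF-alpha plus IFN-gamma mixture; protective hits raise ATP signal compared with cytokine alone wells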
# [8] = AlphaScreen signal interference compounds, dose response, artefact control for ARNT-TACC3 interaction inhibitor project, biochemical, luminescence, cherry-pick (AID 651705); format: functional;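 also: AlphaScreen bead proximity signal that flags compounds interfering with the detection technology; potency reflects signal decrease which marks the compound as an assay artifact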
# [9] = target: T4, Cysteine protease ATG4B (Homo sapiens, UniProt Q9Y4P1); format: functional;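 also: Fluorescence-based dose-response confirmation assay measuring inhibition of ATG4B activity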
# T4 sequence (Q9Y4P1 whole entry): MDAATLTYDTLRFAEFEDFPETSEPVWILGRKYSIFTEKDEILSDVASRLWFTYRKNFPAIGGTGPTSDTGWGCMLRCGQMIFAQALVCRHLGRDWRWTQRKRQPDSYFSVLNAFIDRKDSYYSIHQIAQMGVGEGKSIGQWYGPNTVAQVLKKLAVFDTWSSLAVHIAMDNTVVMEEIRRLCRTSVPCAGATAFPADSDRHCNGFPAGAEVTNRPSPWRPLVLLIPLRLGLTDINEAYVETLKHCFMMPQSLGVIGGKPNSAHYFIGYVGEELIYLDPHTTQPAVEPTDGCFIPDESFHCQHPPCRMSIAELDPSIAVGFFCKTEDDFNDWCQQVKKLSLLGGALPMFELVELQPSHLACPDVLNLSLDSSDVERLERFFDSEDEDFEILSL
# [10] = system: H9c2; test: cells; format: functional, cell-based; conditions: Rattus norvegicus, H9c2, Myocardium;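 also: confirmatory concentration-response retest of ultra-high-throughput screening hits for modulation of myocardial damage; cell death induced by hydrogen peroxide oxidative stress; compound pretreatment for 60 min then peroxide exposure for 2 h; potency is for protecting the cells against peroxide damage rather than for killing them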
# [11] = target: T5, High affinity choline transporter 1 (Homo sapiens, UniProt Q9GZV3); test: CHT inhibitors, dose response, cell-based, 5-point CRC, membrane potential dye (AID 504840); format: functional
# T5 sequence (Q9GZV3 whole entry): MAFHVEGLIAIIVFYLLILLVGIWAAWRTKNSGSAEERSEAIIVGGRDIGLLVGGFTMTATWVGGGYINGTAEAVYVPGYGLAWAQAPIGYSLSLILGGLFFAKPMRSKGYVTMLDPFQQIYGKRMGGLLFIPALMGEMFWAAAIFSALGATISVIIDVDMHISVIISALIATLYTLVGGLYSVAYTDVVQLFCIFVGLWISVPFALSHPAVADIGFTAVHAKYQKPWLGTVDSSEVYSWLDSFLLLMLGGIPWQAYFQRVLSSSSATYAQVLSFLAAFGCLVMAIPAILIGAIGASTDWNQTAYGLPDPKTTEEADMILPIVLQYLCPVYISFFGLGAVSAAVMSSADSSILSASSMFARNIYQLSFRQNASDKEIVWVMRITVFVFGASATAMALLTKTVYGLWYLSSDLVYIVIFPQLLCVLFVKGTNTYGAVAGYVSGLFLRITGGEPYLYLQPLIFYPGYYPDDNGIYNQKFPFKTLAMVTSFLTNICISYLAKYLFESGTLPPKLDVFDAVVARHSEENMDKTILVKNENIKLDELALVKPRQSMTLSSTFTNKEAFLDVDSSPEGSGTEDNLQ
# [12] = target: Phospholipase A2 (Homo sapiens, UniProt P04054); format: functional;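 also: confirmatory dose-response counterscreen on phospholipase A2, testing hits that came from an ultra-high-throughput screen for ATG4B inhibitors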
# Sequence of Phospholipase A2 (P04054 whole entry): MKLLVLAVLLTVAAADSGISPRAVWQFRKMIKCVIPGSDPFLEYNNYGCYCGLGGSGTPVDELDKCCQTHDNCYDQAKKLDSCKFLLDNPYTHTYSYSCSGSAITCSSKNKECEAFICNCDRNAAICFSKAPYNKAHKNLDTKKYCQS
# [13] = target: T6, Rac GTPase-activating protein 1 (Homo sapiens, UniProt Q9H0H5); test: MgcRacGAP GTPase-activating activity inhibitors, confirmation, biochemical, ADP Hunter fluorescence, primary and confirmatory (AID 624330); format: functional
# T6 sequence (Q9H0H5 whole entry): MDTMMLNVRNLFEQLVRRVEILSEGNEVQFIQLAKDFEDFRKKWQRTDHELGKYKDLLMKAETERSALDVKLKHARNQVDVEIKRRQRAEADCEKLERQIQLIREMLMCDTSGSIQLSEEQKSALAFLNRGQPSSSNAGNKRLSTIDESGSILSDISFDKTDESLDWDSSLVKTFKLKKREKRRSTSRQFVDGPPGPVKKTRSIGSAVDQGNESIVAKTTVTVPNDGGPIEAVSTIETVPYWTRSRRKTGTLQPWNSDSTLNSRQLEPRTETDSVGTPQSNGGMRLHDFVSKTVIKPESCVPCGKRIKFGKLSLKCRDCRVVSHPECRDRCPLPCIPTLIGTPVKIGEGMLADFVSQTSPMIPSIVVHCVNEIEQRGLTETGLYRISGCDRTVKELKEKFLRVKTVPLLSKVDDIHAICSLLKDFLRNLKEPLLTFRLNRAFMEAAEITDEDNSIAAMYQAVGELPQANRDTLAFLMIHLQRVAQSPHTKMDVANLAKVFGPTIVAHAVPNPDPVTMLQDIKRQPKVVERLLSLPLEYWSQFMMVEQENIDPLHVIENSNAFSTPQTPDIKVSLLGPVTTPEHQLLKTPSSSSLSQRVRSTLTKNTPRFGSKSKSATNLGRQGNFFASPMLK
# [14] = target: DNA repair and recombination protein RAD54-like (Homo sapiens, UniProt Q92698); test: inhibitors of human RAD54 branch migration, confirmation, biochemical, fluorescence, cherry-picked samples, dose series (AID 651657); format: functional
# Sequence of DNA repair and recombination protein RAD54-like (Q92698 whole entry): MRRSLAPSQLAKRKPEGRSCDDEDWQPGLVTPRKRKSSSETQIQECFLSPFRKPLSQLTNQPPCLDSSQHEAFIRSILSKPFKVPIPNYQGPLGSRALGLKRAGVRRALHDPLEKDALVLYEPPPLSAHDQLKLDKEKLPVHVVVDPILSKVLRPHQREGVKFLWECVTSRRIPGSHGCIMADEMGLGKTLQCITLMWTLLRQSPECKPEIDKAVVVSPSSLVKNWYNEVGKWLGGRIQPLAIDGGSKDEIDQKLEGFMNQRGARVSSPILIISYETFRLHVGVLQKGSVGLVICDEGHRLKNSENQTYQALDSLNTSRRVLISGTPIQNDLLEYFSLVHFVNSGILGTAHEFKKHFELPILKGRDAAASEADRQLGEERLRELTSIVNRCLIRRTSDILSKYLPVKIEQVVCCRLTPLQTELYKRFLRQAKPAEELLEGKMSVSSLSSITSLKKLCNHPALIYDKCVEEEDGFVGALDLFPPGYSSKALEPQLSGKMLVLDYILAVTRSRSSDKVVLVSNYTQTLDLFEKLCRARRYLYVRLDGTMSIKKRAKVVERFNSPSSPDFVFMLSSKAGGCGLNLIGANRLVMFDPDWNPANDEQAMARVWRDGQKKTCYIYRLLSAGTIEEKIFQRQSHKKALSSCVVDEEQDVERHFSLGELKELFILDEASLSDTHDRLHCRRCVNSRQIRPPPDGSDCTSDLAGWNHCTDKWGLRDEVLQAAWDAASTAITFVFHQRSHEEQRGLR
# [15] = target: Dual specificity tyrosine-phosphorylation-regulated kinase 1A (Rattus norvegicus, UniProt Q63470); format: biochemical, Homo sapiens
# Sequence of Beta-2 adrenergic receptor (P07550 whole entry): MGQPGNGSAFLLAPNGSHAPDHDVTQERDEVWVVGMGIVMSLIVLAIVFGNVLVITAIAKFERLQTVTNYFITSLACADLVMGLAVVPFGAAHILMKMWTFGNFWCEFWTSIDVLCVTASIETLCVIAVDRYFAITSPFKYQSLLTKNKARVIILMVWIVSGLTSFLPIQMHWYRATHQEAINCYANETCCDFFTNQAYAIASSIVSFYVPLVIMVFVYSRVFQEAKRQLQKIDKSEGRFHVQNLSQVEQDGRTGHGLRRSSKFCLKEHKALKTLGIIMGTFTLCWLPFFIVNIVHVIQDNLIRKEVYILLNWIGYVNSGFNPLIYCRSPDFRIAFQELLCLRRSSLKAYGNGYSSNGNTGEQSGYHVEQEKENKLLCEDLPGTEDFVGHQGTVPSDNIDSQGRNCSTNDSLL
smiles,measurement,setting,value
CC1=C(C#N)C(c2cn(-c3ccccc3)nc2-c2cccs2)C(C#N)=C(C)N1,EC50,[1],0.327 µM (inactive)
Cc1nc2ccccc2n1Cc1ccc(Br)cc1,EC50,[2],0.668 µM (active)
same,IC50,[3],0.369 µM (active)
same,EC50,[4],> 29.9 µM (inactive)
same,IC50,[5],4.4 µM (active)
same,IC50,[6],0.14 µM (active)
same,AC50,[7],2.84 µM (active)
O=C(NCCCn1ccnc1)C(=O)NCC1OCCN1S(=O)(=O)c1ccc2c(c1)OCCO2 (stereo not drawn),AC50,[8],89.6 µM (active)
Cc1cccc(/N=C/c2cc(Br)cc(Cl)c2O)c1,IC50,[9],8.52 µM (active)
same,IC50,[10],> 79 µM (inactive)
same,IC50,[11],13.3 µM (active)
same,IC50,[12],12.1 µM (active)
CSCC[C@H](NC(=O)OC(C)(C)C)C(=O)N/N=C/c1cccc2cccnc12,AC50,[8],132 µM (active)
same,IC50,[10],> 79 µM (inactive)
CNCC(O)c1ccc(OC(=O)C(C)(C)C)c(OC(=O)C(C)(C)C)c1 (stereo not drawn) [DIPIVEFRIN HYDROCHLORIDE],EC50,[1],7.13 µM (active)
Cc1[nH]ccc2c1[nH]c1cc(=O)ccc12 [HARMOL],IC50,[13],44.9 µM (active)
same,AC50,[14],23.9 µM (active)
same,AC50,[15],0.298 µM (active)
